Experimental data from patent publication US9682990B2, “Alcohol-, diol-, and carbohydrate-substituted indenoisoquinolines as topoisomerase I inhibitors” (Purdue Research Foundation, priority 2011, dated 2017).
Where two headings read alike, the source gives them in different places. Marks after values point to notes of the source that are not given here.

Columns and labels:
[1] = test system: cell lines derived from approximately 60 different human tumors; experiment: NCI initial one-dose screening assay; type: cell-based; conditions: percentage of cell growth, one-dose assay at 10 μM
[2] = test system: HOP-62 (Lung); experiment: NCI Developmental Therapeutics antiproliferative assay, HOP-62; type: cell-based, human
Experimental: (§1) Biological Results. The indenoisoquinoline analogues were tested for antiproliferative activity in the National Cancer Institute's Developmental Therapeutics Assay against cell lines derived from approximately 60 different human tumors.

[3] = test system: HCT-116 (Colon); experiment: NCI Developmental Therapeutics antiproliferative assay, HCT-116; type: cell-based, human
Experimental: as §1

[4] = test system: SF-539 (CNS); experiment: NCI Developmental Therapeutics antiproliferative assay, SF-539; type: cell-based, human
Experimental: (§2) Biological Results. The indenoisoquinoline analogues were tested for antiproliferative activity in the National Cancer Institute's Developmental Therapeutics Assay against cell lines derived from approximately 60 different human tumors. […] Results are reported in Table 2 as GI50 values for selected cell lines, and overall antiproliferative potency is quantified as a mean-graph midpoint (MGM).

[5] = test system: UACC-62 (Melanoma); experiment: NCI Developmental Therapeutics antiproliferative assay, UACC-62; type: cell-based, human
Experimental: as §1

[6] = test system: OVCAR-3 (Ovarian); experiment: NCI Developmental Therapeutics antiproliferative assay, OVCAR-3; type: cell-based, human
Experimental: as §2

[7] = test system: SN12C (Renal); experiment: NCI Developmental Therapeutics antiproliferative assay, SN12C; type: cell-based, human
Experimental: as §2

[8] = test system: DU-145 (Prostate); experiment: NCI Developmental Therapeutics antiproliferative assay, DU-145; type: cell-based, human
Experimental: as §1

[9] = test system: MCF7 (Breast); experiment: NCI Developmental Therapeutics antiproliferative assay, MCF7; type: cell-based, human
Experimental: as §2

[10] = test system: all human cancer cell lines successfully tested; experiment: NCI-60 cell line assay, mean-graph midpoint; type: cell-based; conditions: for GI50: read-out: MGM GI50; for MGM (mean graph midpoint for growth inhibition): all human cancer cell lines tested, 10^−8 to 10^−4 molar
Experimental: as §1, with “tumors. […] The cytotoxicities of the compounds to cultured cancer cells were measured in the National Cancer Institute's 60 cell line assay (a.k.a. NCI-60).” for “tumors.”

[11] = Homo sapiens, HOP-62, 50% growth inhibition, read-out: Cytotoxicity (GI50) Lung HOP-62
[12] = Homo sapiens, HCT-116, 50% growth inhibition, read-out: Cytotoxicity (GI50) Colon HCT-116
[13] = Homo sapiens, SF-539, 50% growth inhibition, read-out: Cytotoxicity (GI50) CNS SF-539
[14] = Homo sapiens, UACC-62, 50% growth inhibition, read-out: Cytotoxicity (GI50) Melanoma UACC-62
[15] = Homo sapiens, OVCAR-3, 50% growth inhibition, read-out: Cytotoxicity (GI50) Ovarian OVCAR-3
[16] = Homo sapiens, SN12C, 50% growth inhibition, read-out: Cytotoxicity (GI50) Renal SN12C
[17] = Homo sapiens, DU-145, 50% growth inhibition, read-out: Cytotoxicity (GI50) Prostate DU-145
[18] = Homo sapiens, MCF7, 50% growth inhibition, read-out: Cytotoxicity (GI50) Breast MCF7

Compound | Growth Percent [1] | MGM (mean graph midpoint for growth inhibition) [10] [µM] | GI50 [2] [µM] | GI50 [3] [µM] | GI50 [4] [µM] | GI50 [5] [µM] | GI50 [6] [µM] | GI50 [7] [µM] | GI50 [8] [µM] | GI50 [9] [µM] | also measured
(1′R)-5,6-Dihydro-6-(3′-hydroxy-1′-methylethyl)-5,11-dioxo-11H-indeno[1,2-c]isoquinoline [Compound 22b] | 78.60% | – | – | – | – | – | – | – | – | – | –
O=C1c2ccccc2-c2c1c1ccccc1c(=O)n2CC(O)CO (racemic) [Compound 12c, (2′RS)-5,6-Dihydro-6-[(2′,3′-dihydroxypropyl)]-5,11-dioxo-11H-indeno[1,2-c]isoquinoline] | – | 5.13 | – | – | – | – | – | – | – | – | GI50 [2, 11]: 7.76 µM; GI50 [3, 12]: 4.36 µM; GI50 [4, 13]: 5.89 µM; GI50 [5, 14]: 7.58 µM; GI50 [6, 15]: 18.6 µM; GI50 [7, 16]: 2.95 µM; GI50 [8, 17]: 2.88 µM; GI50 [9, 18]: 3.55 µM; GI50 ([10]; Homo sapiens): 5.13 µM
NC[C@H](O)Cn1c2c(c3ccccc3c1=O)C(=O)c1ccccc1-2 [Compound 27d, (2′RS)-5,6-Dihydro-6-(3′-amino-2′-hydroxypropyl)-5,11-dioxo-11H-indeno[1,2-c]isoquinoline] | −23.49% | 0.348 ± 0.109 | 0.276 | 0.263 | 0.344 | 0.318 | 1.32 | 0.206 | 0.13 | 0.198 | GI50 [10]: 0.348 µM
O=C1c2ccccc2-c2c1c1ccccc1c(=O)n2C[C@H](O)[C@@H](O)[C@H](O)CO [Compound 17d, (2′S,3′R,4′R)-5,6-Dihydro-6-(2′,3′,4′,5′-tetrahydroxypentyl)-5,11-dioxo-11H-indeno[1,2-c]isoquinoline] | 34.91% | 4.07 | 3.23 | – | 7.94 | – | 24 | 2.24 | – | 1.74 | –
COc1cc2c3c(n(C[C@H](O)CO)c(=O)c2cc1OC)-c1ccccc1C3=O [Compound 29, (2′S)-5,6-Dihydro-6-(2′,3′-dihydroxypropyl)-2,3-dimethoxy-5,11-dioxo-11H-indeno[1,2-c]isoquinoline] | – | 0.401 ± 0.055 | 0.336 | 0.23 | 0.214 | 0.144 | 0.287 | 0.501 | 0.419 | 0.097 | GI50 [10]: 0.401 µM
O=C1c2ccccc2-c2c1c1ccccc1c(=O)n2C[C@@H](O)[C@@H](O)[C@H](O)CO [Compound 17e, (2′R,3′R,4′R)-5,6-Dihydro-6-(2′,3′,4′,5′-tetrahydroxypentyl)-5,11-dioxo-11H-indeno[1,2-c]isoquinoline] | 50.62% | 7.76 | 6.46 | – | 11.2 | 6.31 | 13.2 | 5.01 | – | 1.9 | –
O=C(CO)Cn1c2c(c3ccccc3c1=O)C(=O)c1ccccc1-2 [Compound 25, 5,6-Dihydro-6-(3′-hydroxy-2′-oxopropyl)-5,11-dioxo-11H-indeno[1,2-c]isoquinoline] | 72.36% | 20.9 | – | – | – | – | – | – | – | – | GI50 [2, 11]: 40.7 µM; GI50 [3, 12]: 30.9 µM; GI50 [4, 13]: 20 µM; GI50 [5, 14]: 58.9 µM; GI50 [6, 15]: 5.23 µM; GI50 [7, 16]: 81.3 µM; GI50 [8, 17]: 17.8 µM; GI50 [9, 18]: 32.3 µM
NCCCn1c2c(c3ccc([N+](=O)[O-])cc3c1=O)C(=O)c1cc3c(cc1-2)OCO3 [reference compound] | – | – | – | – | – | – | – | – | – | – | GI50 ([10]; Homo sapiens, Table 3, NCI-60, unit inferred): 0.09 ± 0.04 µM
C[C@H](O)Cn1c2c(c3ccccc3c1=O)C(=O)c1ccccc1-2 [Compound 27c, (2′RS)-5,6-Dihydro-6-(2′-hydroxypropyl)-5,11-dioxo-11H-indeno[1,2-c]isoquinoline] | 50.24% | 7.9 | 3.46 | 5.75 | 6.76 | 6.16 | 16.2 | 3.98 | 4.36 | 3.8 | –
O=C1c2ccccc2-c2c1c1ccccc1c(=O)n2C[C@H](O)[C@@H](O)[C@H](O)[C@H](O)CO [Compound 17c, (2′S,3′R,4′R,5′R)-5,6-Dihydro-6-(2′,3′,4′,5′,6′-pentahydroxyhexyl)-5,11-dioxo-11H-indeno[1,2-c]isoquinoline] | 97.16^e % | – | – | – | – | – | – | – | – | – | –
O=C1c2ccccc2-c2c1c1ccccc1c(=O)n2C[C@@H](O)[C@@H](O)[C@H](O)[C@H](O)CO [Compound 17f, (2′R, 3′R, 4′R, 5′R)-5,6-Dihydro-6-(2′,3′,4′,5′,6′-pentahydroxyhexyl)-5,11-dioxo-11H-indeno[1,2-c]isoquinoline] | 69.35% | – | – | – | – | – | – | – | – | – | –
O=C1c2ccccc2-c2c1c1ccc([N+](=O)[O-])cc1c(=O)n2C[C@H](O)CO [Compound 30, (2′S)-5,6-Dihydro-6-(2′,3′-dihydroxypropyl)-3-nitro-5,11-dioxo-11H-indeno[1,2-c]isoquinoline] | – | 0.156 ± 0.061 | – | – | – | – | – | – | – | – | GI50 [10]: 0.156 µM
C[C@H](O)Cn1c2c(c3ccccc3c1=O)C(=O)c1ccccc1-2 [Compound 27b, (2′S)-5,6-Dihydro-6-(2′-hydroxypropyl)-5,11-dioxo-11H-indeno[1,2-c]isoquinoline] | 54.88% | – | – | – | – | – | – | – | – | – | –
O=C1c2ccccc2-c2c1c1ccccc1c(=O)n2C[C@H](O)[C@H](O)[C@H](O)[C@H](O)CO [Compound 17h, (2′S,3′S,4′R,5′R)-5,6-Dihydro-6-(2′,3′,4′,5′,6′-pentahydroxyhexyl)-5,11-dioxo-11H-indeno[1,2-c]isoquinoline] | 49.31% | 5.75 | 3.23 | 4.17 | 5.75 | 2.95 | 13.8 | 3.39 | 3.31 | 1.78 | –
O=C1c2ccccc2-c2c1c1ccccc1c(=O)n2C[C@H](O)[C@H](O)[C@H](O)CO [Compound 17b, (2′S,3′S,4′R)-5,6-Dihydro-6-(2′,3′,4′,5′-tetrahydroxypentyl)-5,11-dioxo-11H-indeno[1,2-c]isoquinoline] | 17.28% | 3.31 | – | – | 2.14 | 3.23 | 13.5 | 2.4 | – | 1.38 | –
O=C1c2ccccc2-c2c1c1ccccc1c(=O)n2C[C@@H](O)[C@H](O)[C@H](O)CO [Compound 17a, (2′R, 3′S, 4′R)-5,6-Dihydro-6-(2′,3′,4′,5′-tetrahydroxypentyl)-5,11-dioxo-11H-indeno[1,2-c]isoquinoline] | 58.44% | 19.9 | 8.71 | – | 7.59 | 7.41 | > 100 | 20 | – | 4.57 | –
O=C1c2ccccc2-c2c1c1ccccc1c(=O)n2C[C@H](O)[C@@H](O)[C@@H](O)CO [Compound 17g, (2′S,3′R,4′S,5′R)-5,6-Dihydro-6-(2′,3′,4′,5′-tetrahydroxypentyl)-5,11-dioxo-11H-indeno[1,2-c]isoquinoline] | 67.99% | – | – | – | – | – | – | – | – | – | –
C[C@@H](O)Cn1c2c(c3ccccc3c1=O)C(=O)c1ccccc1-2 [Compound 27a, (2′R)-5,6-Dihydro-6-(2′-hydroxypropyl)-5,11-dioxo-11H-indeno[1,2-c]isoquinoline] | 55.23% | 10.2 | 3.39 | 5.52 | 6.31 | 10.2 | 21.4 | 9.33 | 8.32 | 3.23 | –
(1′RS)-5,6-Dihydro-6-(3′-hydroxy-2′-methylethyl)-5,11-dioxo-11H-indeno[1,2-c]isoquinoline [Compound 22c] | – | 15.6 ± 2.15 | 17.6 | 15.9 | 14.4 | 11.7 | 25.7 | 37.1 | 23.7 | 34.4 | –
